Results: patent US20050282707A1, “Pyridinylisoxazoles and their use as herbicides” (Bayer CropScience GmbH, priority 2004, published 2005)

What was measured:
Format in all cases: in vivo
wheat plants = assay: Crop plant tolerance; conditions: application rate of 320 g, plants with two to three true leaves, greenhouse, visual scoring four to five weeks after application
Excerpt: (§1) Seeds of mono- and dicotyledonous weed plants are placed in sandy loam in cardboard pots and covered with soil. The compounds according to the invention, formulated as wettable powders or emulsifiable concentrates, are then applied, in the form of an aqueous suspension or emulsion, at a dosage of 320 g of active ingredient or less per hectare (converted), onto the surface of the covering earth, at an application rate of 600 to 800 l of water per ha (converted). Following treatment, the pots are placed in the greenhouse and maintained under good growth conditions for the weed plants. The visual scoring of the plant damage or emergence damage is made when the test plants have emerged, after an experimental period of 3 to 4 weeks, in comparison to untreated controls.
(§2) In further greenhouse experiments, seeds of crop plants and of monocotyledonous and dicotyledonous weed plants are placed in sandy loam, covered with soil and placed in the greenhouse until the plants have developed two to three true leaves. Then they are treated with the compounds of the formula (I) according to the invention, and compared with those disclosed in the prior art, as described above in section 1. Four to five weeks after the application and after having been left to stand in the greenhouse, visual scoring is performed. In this test, for example, the compounds of Nos: 1.44, 2.39 and 3.44, at an application rate of 320 g, lead to no damage to maize and wheat plants.

maize plants = assay: Crop plant tolerance; conditions: application rate of 320 g, plants with two to three true leaves, greenhouse, visual scoring four to five weeks after application
Excerpt: as §1, §2

Setaria viridis = assay: Pre-emergence herbicidal action; conditions: 320 g of active ingredient or less per hectare, greenhouse, visual scoring after 3 to 4 weeks vs untreated controls
Excerpt: as §1

Amaranthus retroflexus = assay: Pre-emergence herbicidal action; conditions: 320 g of active ingredient or less per hectare, greenhouse, visual scoring after 3 to 4 weeks vs untreated controls
Excerpt: as §1

Sinapis arvensis = assay: Pre-emergence herbicidal action; conditions: 320 g of active ingredient or less per hectare, greenhouse, visual scoring after 3 to 4 weeks vs untreated controls
Excerpt: as §1

| SMILES | damage to wheat plants (wheat plants) | damage to maize plants (maize plants) | activity against Setaria viridis (Setaria viridis) | activity against Amaranthus retroflexus (Amaranthus retroflexus) | activity against Sinapis arvensis (Sinapis arvensis) |
| --- | --- | --- | --- | --- | --- |
| Cc1nc(Cl)ccc1-c1oncc1C(=O)C1CC1 [2.39] | no damage | no damage | 100% | 100% | 100% |
| CSc1ccc(-c2oncc2C(=O)C2CC2)c(C)n1 [2.14] | – | – | 100% | 100% | 100% |
| Cc1nc(Cl)ccc1C(=O)c1cnoc1C1CC1 [1.39] | – | – | 100% | 100% | 100% |
| CCS(=O)(=O)c1ccc(C(=O)c2cnoc2C2CC2)c(C)n1 [1.19] | – | – | 100% | 100% | 100% |
| CCS(=O)(=O)c1ccc(-c2oncc2C(=O)C2CC2)c(C)n1 [2.19] | – | – | 100% | 100% | 100% |
| Cc1nc(C(F)(F)F)ccc1C(=O)C(C#N)C(=O)C1CC1 (stereo not shown) [3.44] | no damage | no damage | 100% | 100% | 100% |
